Paper PMC11650849, “Brain endothelial permeability, transport, and flow assessed over 10 orders of magnitude using the in situ brain perfusion technique” (Fluids and Barriers of the CNS, 2024)

Columns and labels:
[1] = Octanol/water partition and distribution coefficients; conditions: octanol distribution coefficient, pH 7.4
[2] = target: T1, MAT1 (Rattus norvegicus, UniProt P53987); conditions: facilitated nutrients, MAT1, S 30 s
T1 sequence (P53987 1-494): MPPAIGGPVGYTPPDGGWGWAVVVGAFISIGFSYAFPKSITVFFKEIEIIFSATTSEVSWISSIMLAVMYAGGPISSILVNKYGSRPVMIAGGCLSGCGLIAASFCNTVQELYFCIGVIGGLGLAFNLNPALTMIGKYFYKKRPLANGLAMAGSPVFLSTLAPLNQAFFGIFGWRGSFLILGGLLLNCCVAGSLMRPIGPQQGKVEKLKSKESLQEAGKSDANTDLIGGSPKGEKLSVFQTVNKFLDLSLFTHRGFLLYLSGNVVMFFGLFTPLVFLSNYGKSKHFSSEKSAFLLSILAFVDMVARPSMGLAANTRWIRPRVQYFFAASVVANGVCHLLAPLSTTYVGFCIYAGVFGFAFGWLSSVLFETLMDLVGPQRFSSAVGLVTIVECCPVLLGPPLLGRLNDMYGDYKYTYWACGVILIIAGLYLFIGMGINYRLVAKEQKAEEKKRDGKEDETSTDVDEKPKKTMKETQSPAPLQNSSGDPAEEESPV

**Q.** For L-Lactate, which “Log Doct 7.4” value [1] is on record?
**A.** Its value is −0.70.

**Q.** And the PS [2]?
**A.** Its PS is 0.00125 mL/s/g.
